Results as given in BindingDB's records for doi:10.1021/jm030603w (Purdue Pharma, 2005).
“And” between values parts separate entries of the source, which are not always exact repeats. Equal entries are not always repeated. Structures can show the parent of a compound that is named as a salt.

How the values were obtained:
Assay in all cases: PDE Activity Assay
[1] = target: cAMP-specific 3',5'-cyclic phosphodiesterase 4B (Homo sapiens, UniProt Q07343)
[2] = target: cAMP-specific 3',5'-cyclic phosphodiesterase 4A (Homo sapiens, UniProt P27815); conditions: pH 8; 22 °C
[3] = target: cAMP-specific 3',5'-cyclic phosphodiesterase 4D (Homo sapiens, UniProt Q08499)
cAMP-specific 3',5'-cyclic phosphodiesterase 4D, sequence (Q08499 whole entry): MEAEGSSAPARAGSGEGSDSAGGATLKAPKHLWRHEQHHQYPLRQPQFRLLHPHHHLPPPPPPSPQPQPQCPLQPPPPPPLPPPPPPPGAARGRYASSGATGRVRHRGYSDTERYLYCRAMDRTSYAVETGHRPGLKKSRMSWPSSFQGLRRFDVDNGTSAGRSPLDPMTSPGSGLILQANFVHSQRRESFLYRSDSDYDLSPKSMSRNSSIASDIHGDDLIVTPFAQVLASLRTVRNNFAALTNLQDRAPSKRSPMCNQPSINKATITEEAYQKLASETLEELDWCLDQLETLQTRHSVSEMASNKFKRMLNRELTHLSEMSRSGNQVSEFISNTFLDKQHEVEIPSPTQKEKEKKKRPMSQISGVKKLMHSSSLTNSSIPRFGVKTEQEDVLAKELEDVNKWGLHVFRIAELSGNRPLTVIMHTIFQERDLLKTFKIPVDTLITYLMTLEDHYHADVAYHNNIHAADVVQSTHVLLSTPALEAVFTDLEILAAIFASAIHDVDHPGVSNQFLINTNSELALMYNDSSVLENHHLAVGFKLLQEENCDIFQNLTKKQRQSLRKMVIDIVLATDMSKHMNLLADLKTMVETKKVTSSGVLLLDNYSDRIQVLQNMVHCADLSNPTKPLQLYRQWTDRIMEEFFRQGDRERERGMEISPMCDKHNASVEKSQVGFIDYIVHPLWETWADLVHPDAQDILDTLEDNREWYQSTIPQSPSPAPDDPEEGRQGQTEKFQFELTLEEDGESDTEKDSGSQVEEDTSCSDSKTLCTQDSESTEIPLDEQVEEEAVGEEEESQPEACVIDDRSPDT

cAMP-specific 3',5'-cyclic phosphodiesterase 4A, sequence (P27815 whole entry): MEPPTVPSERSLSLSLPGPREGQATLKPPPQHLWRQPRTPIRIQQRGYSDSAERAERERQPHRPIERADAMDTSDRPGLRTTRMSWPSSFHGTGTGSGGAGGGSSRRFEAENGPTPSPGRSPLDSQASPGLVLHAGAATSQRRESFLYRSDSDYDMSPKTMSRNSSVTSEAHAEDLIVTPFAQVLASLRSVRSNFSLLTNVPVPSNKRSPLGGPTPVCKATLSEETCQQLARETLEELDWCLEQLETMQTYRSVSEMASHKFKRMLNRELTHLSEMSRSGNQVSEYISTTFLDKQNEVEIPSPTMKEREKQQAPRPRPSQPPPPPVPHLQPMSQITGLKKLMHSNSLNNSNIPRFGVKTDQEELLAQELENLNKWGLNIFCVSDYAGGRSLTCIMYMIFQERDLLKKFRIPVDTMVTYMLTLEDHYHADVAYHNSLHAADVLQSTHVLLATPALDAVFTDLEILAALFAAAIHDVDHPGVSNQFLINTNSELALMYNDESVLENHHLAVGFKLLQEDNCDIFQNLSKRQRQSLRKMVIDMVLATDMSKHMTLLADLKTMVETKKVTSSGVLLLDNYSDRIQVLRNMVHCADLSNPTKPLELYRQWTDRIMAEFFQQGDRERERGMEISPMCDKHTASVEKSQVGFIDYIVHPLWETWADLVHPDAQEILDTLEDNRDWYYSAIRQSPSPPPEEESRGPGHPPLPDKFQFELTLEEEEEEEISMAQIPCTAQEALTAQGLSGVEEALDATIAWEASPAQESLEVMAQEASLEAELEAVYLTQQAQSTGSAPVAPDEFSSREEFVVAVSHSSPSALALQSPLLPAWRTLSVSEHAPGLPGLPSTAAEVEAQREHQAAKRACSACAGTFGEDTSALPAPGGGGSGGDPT
cAMP-specific 3',5'-cyclic phosphodiesterase 4B, sequence (Q07343 whole entry): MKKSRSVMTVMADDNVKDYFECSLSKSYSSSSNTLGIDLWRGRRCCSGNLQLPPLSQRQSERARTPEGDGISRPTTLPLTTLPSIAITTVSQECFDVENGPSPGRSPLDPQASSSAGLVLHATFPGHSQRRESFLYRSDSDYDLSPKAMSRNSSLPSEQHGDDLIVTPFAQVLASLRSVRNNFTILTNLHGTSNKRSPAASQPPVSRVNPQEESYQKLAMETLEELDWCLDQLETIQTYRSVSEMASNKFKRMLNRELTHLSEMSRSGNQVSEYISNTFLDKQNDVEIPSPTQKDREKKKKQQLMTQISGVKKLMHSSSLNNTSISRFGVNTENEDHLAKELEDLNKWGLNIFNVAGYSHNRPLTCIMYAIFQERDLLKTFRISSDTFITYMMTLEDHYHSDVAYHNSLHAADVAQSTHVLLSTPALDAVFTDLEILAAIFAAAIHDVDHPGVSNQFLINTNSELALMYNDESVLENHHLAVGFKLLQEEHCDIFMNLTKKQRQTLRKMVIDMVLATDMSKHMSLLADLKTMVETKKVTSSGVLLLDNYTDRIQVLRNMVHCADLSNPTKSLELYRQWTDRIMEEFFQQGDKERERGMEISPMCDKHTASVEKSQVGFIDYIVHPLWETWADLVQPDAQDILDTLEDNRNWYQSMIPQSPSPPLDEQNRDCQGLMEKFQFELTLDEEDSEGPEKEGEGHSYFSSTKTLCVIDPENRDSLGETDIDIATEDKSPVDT

| Ki [1] [nM] | Ki [2] [nM] | Ki [3] | SMILES |
| --- | --- | --- | --- |
| 17.3 | 244 |  | COc1ccc(Cn2cnc(N)c3nc(C(C)(C)OCc4ccc(F)c(F)c4)nc2-3)cc1OC1CCCC1 [3-(3-Cyclopentyloxy-4-methoxy-benzyl)-8-[1-(3,4-difluoro-benzyloxy)-1-methyl-ethyl]-3Hpurin-6-ylamine Fumarate] |
| 71.3 | 1190 |  | COc1ccc(Cn2cnc(N)c3nc(C(C)(C)OCc4ccc(C#N)cc4)nc2-3)cc1OC1CCCC1 [3-(3-Cyclopentyloxy-4-methoxy-benzyl)-8-[1-(4-cyano-benzyloxy)-1-methyl-ethyl]-3Hpurin-6-ylamine] |
| 9.8 | 206 |  | COc1ccc(Cn2cnc(N)c3nc(C(C)(C)OCc4ccc(C)cc4)nc2-3)cc1OC1CCCC1 [3-(3-Cyclopentyloxy-4-methoxy-benzyl)-8-[1-(4-methyl-benzyloxy)-1-methyl-ethyl]-3H-purin-6-ylamine] |
| 5.8 | 175 |  | COc1ccc(Cn2cnc(N)c3nc(C(C)(C)OCc4ccc(C(C)(C)C)cc4)nc2-3)cc1OC1CCCC1 [3-(3-Cyclopentyloxy-4-methoxy-benzyl)-8-[1-(4-tert-butyl-benzyloxy)-1-methyl-ethyl]-3Hpurin-6-ylamine] |
| 33 | 309 |  | COc1ccc(Cn2cnc(N)c3nc(C(C)(C)OCc4ccc(C(F)(F)F)cc4)nc2-3)cc1OC1CCCC1 [3-{[3-(cyclopentyloxy)-4-methoxyphenyl]methyl}-8-(2-{[4-(trifluoromethyl)phenyl]methoxy}propan-2-yl)-3H-purin-6-amine] |
| 9.7 | 166 |  | COc1ccc(Cn2cnc(N)c3nc(C(C)(C)OCc4ccc(Cl)c(Cl)c4)nc2-3)cc1OC1CCCC1 [3-{[3-(cyclopentyloxy)-4-methoxyphenyl]methyl}-8-{2-[(3,4-dichlorophenyl)methoxy]propan-2-yl}-3H-purin-6-amine] |
| 10.3 | 113 |  | COc1ccc(COC(C)(C)c2nc3c(N)ncn(Cc4ccc(OC)c(OC5CCCC5)c4)c-3n2)cc1 [3-{[3-(cyclopentyloxy)-4-methoxyphenyl]methyl}-8-{2-[(4-methoxyphenyl)methoxy]propan-2-yl}-3H-purin-6-amine] |
| 11 | 126 |  | COc1ccc(Cn2cnc(N)c3nc(C(C)(C)OCc4ccc(Cl)cc4)nc2-3)cc1OC1CCCC1 [8-{1-[(4-Chlorobenzyl)oxy]-1-methyl-ethyl}-3-[3-cyclopentyloxy)-4-methoxybenzyl]-3H-purin-6-amine] |

More lines, now with the values behind:

| SMILES | Ki [1] [nM] | Ki [2] [nM] | Ki [3] |
| --- | --- | --- | --- |
| COc1ccccc1COC(C)(C)c1nc2c(N)ncn(Cc3ccc(OC)c(OC4CCCC4)c3)c-2n1 [3-(3-Cyclopentyloxy-4-methoxy-benzyl)-8-[1-(2-methoxy-benzyloxy)-1-methyl-ethyl]-3H-purine-6-ylamine] | 11 | 137 |  |
| COc1ccc(COC(C)(C)c2nc3c(N)ncn(Cc4ccc(OC)c(OC5CCCC5)c4)c-3n2)cc1OC [3-(3-Cyclopentyloxy-4-methoxy-benzyl)-8-[1-(3,4-dimethoxy-benzyloxy)-1-methyl-ethyl]-3Hpurin-6-ylamine Fumarate] | 42.8 | 405 |  |
| COc1ccc(Cn2cnc(N)c3nc(C(C)(C)OCc4ccc5c(c4)OCO5)nc2-3)cc1OC1CCCC1 [3-(3-Cyclopentyloxy-4-methoxy-benzyl)-8-[1-(3,4-methylenedioxy-benzyloxy)-1-methyl-ethyl]-3Hpurin-6-ylamine] | 21.4 | 147 |  |
| COc1ccc(Cn2cnc(N)c3nc(C(C)(C)OCc4cccc(F)c4)nc2-3)cc1OC1CCCC1 [3-(3-Cyclopentyloxy-4-methoxy-benzyl)-8-[1-(3-fluoro-benzyloxy)-1-methyl-ethyl]-3H-purin-6-ylamine] | 11.6 | 208 |  |
| COc1ccc(COC(C)c2nc3c(N)ncn(Cc4ccc(OC)c(OC5CCCC5)c4)c-3n2)cc1 (stereo not given) [3-(3-Cyclopentyloxy-4-methoxy-benzyl)-8-[1-(4-methoxy-benzyloxy)-ethyl]-3H-purin-6-ylamine] | 430 | 5200 |  |
| COc1ccc(Cn2cnc(N)c3nc(C(C)(C)OCc4ccc(OC(F)(F)F)cc4)nc2-3)cc1OC1CCCC1 [3-{[3-(cyclopentyloxy)-4-methoxyphenyl]methyl}-8-(2-{[4-(trifluoromethoxy)phenyl]methoxy}propan-2-yl)-3H-purin-6-amine] | 26.6 | 415 |  |
| COc1ccc(Cn2cnc(N)c3nc(C(C)(C)COc4cccs4)nc2-3)cc1OC1CCCC1 [3-{[3-(cyclopentyloxy)-4-methoxyphenyl]methyl}-8-[2-methyl-1-(thiophen-2-yloxy)propan-2-yl]-3H-purin-6-amine] | 46.9 | 236 |  |
| COc1ccc(Cn2cnc(N)c3nc(C(C)(C)COc4ccsc4)nc2-3)cc1OC1CCCC1 [3-{[3-(cyclopentyloxy)-4-methoxyphenyl]methyl}-8-[2-methyl-1-(thiophen-3-yloxy)propan-2-yl]-3H-purin-6-amine] | 9.5 | 223 |  |
| COc1ccc(Cn2cnc(N)c3nc(C(C)OCc4ccc(F)cc4)nc2-3)cc1OC1CCCC1 (stereo not given) [3-{[3-(cyclopentyloxy)-4-methoxyphenyl]methyl}-8-{1-[(4-fluorophenyl)methoxy]ethyl}-3H-purin-6-amine] | 269 | 3390 |  |
| COc1ccc(Cn2cnc(N)c3nc(C(C)(C)OCc4ccccc4F)nc2-3)cc1OC1CCCC1 [3-{[3-(cyclopentyloxy)-4-methoxyphenyl]methyl}-8-{2-[(2-fluorophenyl)methoxy]propan-2-yl}-3H-purin-6-amine] | 18.9 | 271 |  |
| COc1cccc(COC(C)(C)c2nc3c(N)ncn(Cc4ccc(OC)c(OC5CCCC5)c4)c-3n2)c1 [3-{[3-(cyclopentyloxy)-4-methoxyphenyl]methyl}-8-{2-[(3-methoxyphenyl)methoxy]propan-2-yl}-3H-purin-6-amine] | 13 | 175 |  |
| COc1ccc(Cn2cnc(N)c3nc(C(C)OCc4ccccc4)nc2-3)cc1OC1CCCC1 (stereo not given) [8-[1-(benzyloxy)ethyl]-3-{[3-(cyclopentyloxy)-4-methoxyphenyl]methyl}-3H-purin-6-amine] | 533 | 15200 | 4450 nM and 640 nM and 590 nM |
| COc1ccc(Cn2cnc(N)c3nc(C(C)(C)OCc4ccccc4)nc2-3)cc1OC1CCCC1 [8-[2-(benzyloxy)propan-2-yl]-3-{[3-(cyclopentyloxy)-4-methoxyphenyl]methyl}-3H-purin-6-amine hydrochloride] | 8.9 | 179 |  |
| COc1cc(COC(C)(C)c2nc3c(N)ncn(Cc4ccc(OC)c(OC5CCCC5)c4)c-3n2)cc(OC)c1 [(2E)-but-2-enedioic acid; 3-{[3-(cyclopentyloxy)-4-methoxyphenyl]methyl}-8-{2-[(3,5-dimethoxyphenyl)methoxy]propan-2-yl}-3H-purin-6-amine] | 21.9 | 225 |  |
